Assay results published in US5219864A, “Thienopyridine derivatives” (Kyowa Hakko Kogyo Co., Ltd., priority 1991, dated 1993).

What was measured:
calvaria = experiment: Activity of inhibiting bone absorption (PTH-intensified calcium release from cultured calvaria); type: cell-based, dd mouse; conditions: Mus musculus, human PTH 1-34 1×10^-8 M, 96 hours, read-out: Inhibition Rate
Method: A calvaria of a 5 to 6 day-old dd mouse was aseptically cut off, washed with Dulbecco's modified phosphate buffered saline not containing calcium and magnesium (manufactured by Gibco Oriental Co.) and separated along the sutura of its center. One half of the calvaria so separated was cultured in 1.5 ml of Dulbecco's modified Eagle medium (manufactured by Gibco Oriental Co.) containing 15% of thermally inactivated (at 56° C. for 20 minutes) horse serum and 2.5% of fetal calf serum. The test compound was dissolved in dimethyl sulfoxide, and 10 μl (final concentration: 1×10^-4 M or 1×10-^5 M) of the solution so prepared was added to the culture. Parathyroid hormone (human PTH 1-34, manufactured by Sigma Co.) was dissolved in 0.15 M sodium chloride solution (pH 3), and 3 μl (final concentration: 1×10^-8 M) of the solution so prepared was added to the culture. The cultivation was carried out for 96 hours at 37° C. in an atmosphere consisting of 95% of air and 5% of carbon dioxide. The culture medium was once replaced with a fresh one after 48 hours from the beginning of the cultivation. The concentration of dissolved calcium (i.e., absorption of bone) from the PTH-intensified bone was determined by measuring the quantity of calcium accumulated in the culture collected in 96 hours of cultivation, whereby the concentration of total calcium contained in the culture was measured with Calcium C-Test Wako (manufactured by Wako Pure Chemicals Co., Ltd.), and the inhibition rate was calculated therefrom in accordance with the equation set forth below. [formula] Cd : Total calcium concentration in the culture treated with both test compound and PTH
Cp : Total calcium concentration in the culture treated with PTH alone
Co Total calcium concentration in the culture treated with neither test compound nor PTH

[1] = tested on: cells obtained from the spleen of Balb/c mice sensitized with sheep red blood cells; experiment: Plaque Forming Cell Assay (inhibition of antibody production); type: cell-based, Balb/c strain male mice; conditions: for inhibition at 100 µM / inhibition at 10 µM: Mus musculus, Erythrocyte, inhibition of antibody production, read-out: Inhibition Rate
Method: The method developed by Jerne [Science, 140, 405 (1963)] and Yamamoto, et al [Drugs. Exptl. Clin. res., 8, 5 (1982)] were modified for plaque forming cell assay.
That is, Balb/c strain male mice (age of 7 weeks, Charles River Japan Inc.) were sensitized with 1×10^8 sheep red blood cells (Bio Test Research Institute) and the spleen was extirpated on the sixth or seventh day. The cells obtained from the spleen were treated with ACT solution (Tris-ammonium chloride isotonic buffer) to remove red blood cells. The cells were washed three times with RPMI-1640 medium (Nissui Pharmaceutical Co. . The cells (1×10^7) were incubated in RPMI-1640 medium containing 10% calf fetal serum (Gibco Co.), 50 μg/ml streptomycin, 50 IU/ml of penicillin, 2-mercaptoethanol (5×10^-5 M), sheep red blood cells (5×10^6 cells) and a test compound dissolved in dimethyl sulfoxide supplied on a microculture plate (NUNC Co., 24 wells) in a carbon dioxide gas incubator (TABAI ESPEC CORP) at 37° C. for 5 days.
After completion of the incubation, the cells were transferred to a plastic test tube and centrifuged at 2000 rpm. After the supernatant was removed, the cells were resuspended in 1 ml of RPMI-1640 medium. The cell suspension was sealed in a Cunnigham chamber (Takahashi Giken Co.) together with sheep red blood cells and guinea pig complement (Cedarlane Research Institute) according to the method of Cunnigham [Immunology, 14, 599 (1968)] and incubated at 37° C. for 1 to 2 hours. Direct plaque forming cell (PFC) count was counted.
A rate of inhibiting antibody production by the test compound was determined by the following equation. [formula] A : PFC count in the absence of test compound (dimethylsulfoxide alone) B : PFC count in the presence of test compound

dd-strain male mice = experiment: Acute toxicity test; type: in vivo; conditions: orally administered, mortality for 7 days
Method: A test compound was orally administered to three dd-strain male mice weighting 20±1 g. The minimum lethal dose (MLD) was determined by observing the mortality for 7 days after the administration.

Row | Compound | inhibition at 100 µM (calvaria) [%] | Direct PFC Count (mean ± S.E.M.) ([1]; 10^-4 M) | Direct PFC Count (mean ± S.E.M.) ([1]; 10^-5 M) | inhibition at 100 µM ([1]; 10^-4 M) [%] | inhibition at 10 µM ([1]; 10^-5 M) [%] | inhibition at 10 µM (calvaria) [%] | minimum lethal dose (MLD) (dd-strain male mice) [mg/kg]
1 | O=C(Nc1cccnc1)c1c(O)c2sccc2[nH]c1=O [Compound 1, 4,5-Dihydro-7-hydroxy-5-oxo-N-(3-pyridyl)thieno[3,2-b]-pyridine-6-carboxamide] | -1 |  |  |  |  |  | 
2 | O=C(Nc1ccncc1)c1c(O)c2sccc2[nH]c1=O [Compound 2, 4,5-Dihydro-7-hydroxy-5-oxo-N-(4-pyridyl)thieno[3,2-b]-pyridine-6-carboxamide] | 51 |  |  |  |  |  | 
3 | CCCCn1c(=O)c(C(=O)Nc2ccncc2)c(O)c2sccc21 [Compound 3, 4-(n-Butyl)-4,5-dihydro-7-hydroxy-5-oxo-N-(4-pyridyl)thieno-[3,2-b]pyridine-6-carboxamide] |  | 101 ± 76 | 59 ± 38 | 98 | 98.8 | 141 | 
4 | CCCCn1c(=O)c(C(=O)Nc2cccnc2)c(O)c2sccc21 [Compound 4, 4-(n-Butyl)-4,5-dihydro-7-hydroxy-5-oxo-N-(3-pyridyl)thieno-[3,2-b]pyridine-6-carboxamide] |  | 336 ± 124 | 395 ± 52 | 93.3 | 92.1 | 58 | > 300
5 | CCCCn1c(=O)c(C(=O)Nc2ccncc2)c(O)c2ccsc21 [Compound 5, 7-(n-Butyl)-6,7-dihydro-4-hydroxy-6-oxo-N-(4-pyridyl)thieno-[2,3-b]pyridine-5-carboxamide] |  | 109 ± 77 | 227 ± 131 | 97.8 | 95.5 | 53 | 
6 | CCCCn1c(=O)c(C(=O)Nc2cccnc2)c(O)c2ccsc21 [Compound 6, 7-(n-Butyl)-6,7-dihydro-4-hydroxy-6-oxo-N-(3-pyridyl)thieno-[2,3-b]pyridine-5-carboxamide] |  | 42 ± 29 | 59 ± 29 | 99.2 | 98.8 | 38 | 
7 | O=C(Nc1ccncc1)c1c(O)c2ccsc2[nH]c1=O [Compound 7, 6,7-Dihydro-4-hydroxy-6-oxo-N-(4-pyridyl)thieno[2,3-b]-pyridine-5-carboxamide] |  |  |  |  |  | 32 | > 300
8 | O=C(Nc1cccnc1)c1c(O)c2ccsc2[nH]c1=O [Compound 8, 6,7-Dihydro-4-hydroxy-6-oxo-N-(3-pyridyl)thieno[2,3-b]-pyridine-5-carboxamide] |  |  |  |  |  | 18 | 
